The results in this text go back to PMC2909451 (European journal of pharmaceutical sciences : official …, 2010).

Molecules are shown by their SMILES.

Conditions in all cases: substrate uptake studies
The target of assay [1] is T1, OCTN2 (Homo sapiens, UniProt O76082).
T1 sequence (O76082 1-557): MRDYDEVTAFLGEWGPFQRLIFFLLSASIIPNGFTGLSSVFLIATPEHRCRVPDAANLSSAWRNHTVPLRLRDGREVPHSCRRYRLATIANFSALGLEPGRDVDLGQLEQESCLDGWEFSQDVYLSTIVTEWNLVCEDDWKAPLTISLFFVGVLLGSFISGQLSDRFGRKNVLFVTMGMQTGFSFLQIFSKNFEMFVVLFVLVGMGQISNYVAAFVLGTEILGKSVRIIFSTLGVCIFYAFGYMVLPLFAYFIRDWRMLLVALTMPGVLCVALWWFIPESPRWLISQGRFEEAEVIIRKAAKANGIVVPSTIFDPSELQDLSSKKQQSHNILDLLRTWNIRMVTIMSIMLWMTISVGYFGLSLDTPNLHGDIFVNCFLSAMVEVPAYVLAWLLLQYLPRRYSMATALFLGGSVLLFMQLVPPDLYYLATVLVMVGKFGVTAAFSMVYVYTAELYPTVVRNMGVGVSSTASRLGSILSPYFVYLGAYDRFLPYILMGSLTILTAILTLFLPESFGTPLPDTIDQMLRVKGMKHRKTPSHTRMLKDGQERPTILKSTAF
Put plainly: L-carnitine uptake study. Type of assay: cell-based.

The target of assay [2] is EAAT4 (Rattus norvegicus, UniProt O35921).
EAAT4, sequence (O35921 whole entry): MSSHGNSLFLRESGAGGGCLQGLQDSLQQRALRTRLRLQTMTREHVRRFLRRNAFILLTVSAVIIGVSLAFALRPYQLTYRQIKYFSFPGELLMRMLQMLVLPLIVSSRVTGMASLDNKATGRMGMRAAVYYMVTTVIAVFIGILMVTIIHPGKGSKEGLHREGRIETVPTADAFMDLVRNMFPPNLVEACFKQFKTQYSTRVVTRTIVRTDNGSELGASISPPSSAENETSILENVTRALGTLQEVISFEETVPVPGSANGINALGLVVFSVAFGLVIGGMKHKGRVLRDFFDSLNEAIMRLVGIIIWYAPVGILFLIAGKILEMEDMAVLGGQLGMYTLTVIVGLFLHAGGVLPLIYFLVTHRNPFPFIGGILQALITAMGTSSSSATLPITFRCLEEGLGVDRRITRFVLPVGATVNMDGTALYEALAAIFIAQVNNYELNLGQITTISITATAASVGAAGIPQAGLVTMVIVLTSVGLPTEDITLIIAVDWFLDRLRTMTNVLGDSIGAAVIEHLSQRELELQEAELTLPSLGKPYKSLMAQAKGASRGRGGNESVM
The target in assay [3] is ASBT (Homo sapiens, UniProt Q12908).
ASBT, sequence (Q12908 whole entry): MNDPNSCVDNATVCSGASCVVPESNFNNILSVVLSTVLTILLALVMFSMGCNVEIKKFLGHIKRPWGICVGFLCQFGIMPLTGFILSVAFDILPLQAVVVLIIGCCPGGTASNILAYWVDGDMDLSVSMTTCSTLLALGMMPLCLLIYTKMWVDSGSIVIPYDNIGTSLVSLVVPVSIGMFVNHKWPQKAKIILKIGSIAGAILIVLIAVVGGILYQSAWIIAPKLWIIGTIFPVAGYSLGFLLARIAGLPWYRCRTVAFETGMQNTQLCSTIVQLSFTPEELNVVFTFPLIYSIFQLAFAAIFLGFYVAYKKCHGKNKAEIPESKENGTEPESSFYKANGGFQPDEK

As for `C[N+](C)(C)C[C@H](O)CC(=O)[O-]` [L-carnitine], in assay [1], the “Kt (Michaelis-Menten constant for transporter mediated transport)” value (shortened to “Kt”) is 5.33 µM.
Consider `N[C@@H](CCC(=O)O)C(=O)O` [glumatate, glutamate], for which the “Kt” value in assay [2] came to 2.02 µM.
With `C[C@H](CCC(=O)NCCS(=O)(=O)O)[C@H]1CC[C@H]2[C@@H]3[C@H](O)C[C@@H]4C[C@H](O)CC[C@]4(C)[C@H]3C[C@H](O)[C@]12C` [taurocholate], the “Kt” value in assay [3] is 5.03 µM.
